Test system: SK-N-SH human neuroblastoma cells
Assay: Serum Deprivation/JC-1 Mitochondrial Membrane Potential (MMP) Assay
Format: cell-based
Conditions: Homo sapiens; for EC50 / Emax: SK-N-SH; for EC50: 18 h, serum deprivation ~18 hours, JC-1 ratio normalized to peak value for 10 μM dimebolin, single curve fit to mean data of n=2-3; for Emax: percent maximal intensity in JC-1 ratio normalized to peak value for 10 μM dimebolin, read-out: JC-1 max %; for Emax / activation at 3 µM: serum deprivation; for activation at 3 µM: single dose 3 μM, JC-1 ratio normalized to peak value for 10 μM dimebolin (n=2-4), read-out: JC-1 max % (@ 3 μM)
How it was run: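 SK-N-SH cells serum-deprived ~18 h with compound, then stained with JC-1 for 40 min at 37 °C; red (560/595 nm) to green (485/535 nm) ratio reports membrane potential. Response normalized to peak from 10 μM dimebolin; EC50 from fit to mean of n=2–3, or single-dose 3 μM; DMSO ≤1%.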

Row | Structure (SMILES) | EC50 [µM] | Emax [%] | activation at 3 µM [%]
1 | O=C(N1CCOCC1)N1Cc2ccccc2N2CCN(c3ncccn3)CC2C1 (centres unmarked) [Example 80, morpholin-4-yl[3-(pyrimidin-2-yl)-1,2,3,4,4a,5-hexahydropyrazino[1,2-a][1,4]benzodiazepin-6(7H)-yl]methanone] | 11.9 | 97 | 
2 | O=C(N1CCOCC1)N1Cc2ccccc2N2CCN(S(=O)(=O)c3ccccc3)CC2C1 (centres unmarked) [Example 81, morpholin-4-yl[3-(phenylsulfonyl)-1,2,3,4,4a,5-hexahydropyrazino[1,2-a][1,4]benzodiazepin-6(7H)-yl]methanone] | 9.92 | 129 | 
3 | O=C(N1CCOCC1)N1Cc2ccccc2N2CCN(c3ccc(Cl)cc3)CC2C1 (centres unmarked) [Example 82, [3-(4-chlorophenyl)-1,2,3,4,4a,5-hexahydropyrazino[1,2-a][1,4]benzodiazepin-6(7H)-yl](morpholin-4-yl)methanone] | 5.11 | 127 | 
4 | CC(=O)N1CCN2c3ccccc3CN(C(=O)N3CCOCC3)CC2C1 (centres unmarked) [Example 83, 1-[6-(morpholin-4-ylcarbonyl)-1,2,4a,5,6,7-hexahydropyrazino[1,2-a][1,4]benzodiazepin-3(4H)-yl]ethanone] | > 31.6 | 34 | 
5 | CC(=O)N1CCC(C(=O)N2Cc3ccccc3N3CCN(Cc4ccccc4)CC3C2)CC1 (centres unmarked) [Example 84, 1-{4-[(3-benzyl-1,2,3,4,4a,5-hexahydropyrazino[1,2-a][1,4]benzodiazepin-6(7H)-yl)carbonyl]piperidin-1-yl}ethanone] |  |  | 183
6 | O=C(c1cn[nH]c1)N1Cc2ccccc2N2CCN(Cc3ccccc3)CC2C1 (centres unmarked) [Example 85, (3-benzyl-1,2,3,4,4a,5-hexahydropyrazino[1,2-a][1,4]benzodiazepin-6(7H)-yl)(1H-pyrazol-4-yl)methanone] |  |  | 80
7 | O=C(c1ccn[nH]1)N1Cc2ccccc2N2CCN(Cc3ccccc3)CC2C1 (centres unmarked) [Example 86, (3-benzyl-1,2,3,4,4a,5-hexahydropyrazino[1,2-a][1,4]benzodiazepin-6(7H)-yl)(1H-pyrazol-5-yl)methanone] | 3.14 | 218 | 
8 | O=C(CN1CCOCC1)N1Cc2ccccc2N2CCN(Cc3ccccc3)CC2C1 (centres unmarked) [Example 87, 1-(3-benzyl-1,2,3,4,4a,5-hexahydropyrazino[1,2-a][1,4]benzodiazepin-6(7H)-yl)-2-(morpholin-4-yl)ethanone] |  |  | 83
9 | O=C(c1cscn1)N1Cc2ccccc2N2CCN(Cc3ccccc3)CC2C1 (centres unmarked) [Example 88, (3-benzyl-1,2,3,4,4a,5-hexahydropyrazino[1,2-a][1,4]benzodiazepin-6(7H)-yl)(1,3-thiazol-4-yl)methanone] |  |  | 139
10 | O=C(c1cncs1)N1Cc2ccccc2N2CCN(Cc3ccccc3)CC2C1 (centres unmarked) [Example 89, (3-benzyl-1,2,3,4,4a,5-hexahydropyrazino[1,2-a][1,4]benzodiazepin-6(7H)-yl)(1,3-thiazol-5-yl)methanone] | 1.83 | 140 | 
11 | O=C(c1ccno1)N1Cc2ccccc2N2CCN(Cc3ccccc3)CC2C1 (centres unmarked) [Example 90, (3-benzyl-1,2,3,4,4a,5-hexahydropyrazino[1,2-a][1,4]benzodiazepin-6(7H)-yl)(1,2-oxazol-5-yl)methanone] |  |  | 114
12 | O=C(CCN1CCCC1)N1Cc2ccccc2N2CCN(Cc3ccccc3)CC2C1 (centres unmarked) [Example 91, 1-(3-benzyl-1,2,3,4,4a,5-hexahydropyrazino[1,2-a][1,4]benzodiazepin-6(7H)-yl)-3-(pyrrolidin-1-yl)propan-1-one] |  |  | 78
13 | O=C(CC1CC1)N1Cc2ccccc2N2CCN(Cc3ccccc3)CC2C1 (centres unmarked) [Example 92, 1-(3-benzyl-1,2,3,4,4a,5-hexahydropyrazino[1,2-a][1,4]benzodiazepin-6(7H)-yl)-2-cyclopropylethanone] | 2.47 | 174 | 
14 | O=C(c1ccc[nH]1)N1Cc2ccccc2N2CCN(Cc3ccccc3)CC2C1 (centres unmarked) [Example 93, (3-benzyl-1,2,3,4,4a,5-hexahydropyrazino[1,2-a][1,4]benzodiazepin-6(7H)-yl)(1H-pyrrol-2-yl)methanone] | 1.56 | 185 | 
15 | O=C(c1ccoc1)N1Cc2ccccc2N2CCN(Cc3ccccc3)CC2C1 (centres unmarked) [Example 94, (3-benzyl-1,2,3,4,4a,5-hexahydropyrazino[1,2-a][1,4]benzodiazepin-6(7H)-yl)(3-furyl)methanone] | 2.76 | 172 | 
16 | Cc1cc(C(=O)N2Cc3ccccc3N3CCN(Cc4ccccc4)CC3C2)c(C)n1C (centres unmarked) [Example 95, (3-benzyl-1,2,3,4,4a,5-hexahydropyrazino[1,2-a][1,4]benzodiazepin-6(7H)-yl)(1,2,5-trimethyl-1H-pyrrol-3-yl)methanone] | 0.282 | 189 | 
17 | Cc1cc(C(=O)N2Cc3ccccc3N3CCN(Cc4ccccc4)CC3C2)c(C)[nH]1 (centres unmarked) [Example 96, (3-benzyl-1,2,3,4,4a,5-hexahydropyrazino[1,2-a][1,4]benzodiazepin-6(7H)-yl)(2,5-dimethyl-1H-pyrrol-3-yl)methanone] | 0.856 | 180 | 

Row | Structure (SMILES) | EC50 [µM] | Emax [%] | activation at 3 µM [%]
18 | NC(=O)C1(C(=O)N2Cc3ccccc3N3CCN(Cc4ccccc4)CC3C2)CC1 (centres unmarked) [Example 97, 1-[(3-benzyl-1,2,3,4,4a,5-hexahydropyrazino[1,2-a][1,4]benzodiazepin-6(7H)-yl)carbonyl]cyclopropanecarboxamide] |  |  | 32
19 | O=C(Cc1cccnc1)N1Cc2ccccc2N2CCN(Cc3ccccc3)CC2C1 (centres unmarked) [Example 98, 1-(3-benzyl-1,2,3,4,4a,5-hexahydropyrazino[1,2-a][1,4]benzodiazepin-6(7H)-yl)-2-(pyridin-3-yl)ethanone] |  |  | 107
20 | O=C(NCC(=O)N1Cc2ccccc2N2CCN(Cc3ccccc3)CC2C1)c1ccco1 (centres unmarked) [Example 99, N-[2-(3-benzyl-1,2,3,4,4a,5-hexahydropyrazino[1,2-a][1,4]benzodiazepin-6(7H)-yl)-2-oxoethyl]-2-furamide] | 3.15 | 165 | 
21 | CC(C)C(=O)N1Cc2ccccc2N2CCN(Cc3ccccc3)CC2C1 (centres unmarked) [Example 100, 1-(3-benzyl-1,2,3,4,4a,5-hexahydropyrazino[1,2-a][1,4]benzodiazepin-6(7H)-yl)-2-methylpropan-1-one] |  |  | 118
22 | Cc1noc(C)c1C(=O)N1Cc2ccccc2N2CCN(Cc3ccccc3)CC2C1 (centres unmarked) [Example 101, (3-benzyl-1,2,3,4,4a,5-hexahydropyrazino[1,2-a][1,4]benzodiazepin-6(7H)-yl)(3,5-dimethyl-1,2-oxazol-4-yl)methanone] |  |  | 149
23 | Cc1cnc(C(=O)N2Cc3ccccc3N3CCN(Cc4ccccc4)CC3C2)cn1 (centres unmarked) [Example 102, (3-benzyl-1,2,3,4,4a,5-hexahydropyrazino[1,2-a][1,4]benzodiazepin-6(7H)-yl)(5-methylpyrazin-2-yl)methanone] |  |  | 110
24 | CN1CCN(CC(=O)N2Cc3ccccc3N3CCN(Cc4ccccc4)CC3C2)CC1 (centres unmarked) [Example 103, 1-(3-benzyl-1,2,3,4,4a,5-hexahydropyrazino[1,2-a][1,4]benzodiazepin-6(7H)-yl)-2-(4-methylpiperazin-1-yl)ethanone] |  |  | 42
25 | O=C(c1ccco1)N1Cc2ccccc2N2CCN(Cc3ccccc3)CC2C1 (centres unmarked) [Example 104, (3-benzyl-1,2,3,4,4a,5-hexahydropyrazino[1,2-a][1,4]benzodiazepin-6(7H)-yl)(2-furyl)methanone] |  |  | 178
26 | Cn1cccc1C(=O)N1Cc2ccccc2N2CCN(Cc3ccccc3)CC2C1 (centres unmarked) [Example 105, (3-benzyl-1,2,3,4,4a,5-hexahydropyrazino[1,2-a][1,4]benzodiazepin-6(7H)-yl)(1-methyl-1H-pyrrol-2-yl)methanone] | 2.52 | 197 | 
27 | CCC(=O)N1Cc2ccccc2N2CCN(Cc3ccccc3)CC2C1 (centres unmarked) [Example 106, 1-(3-benzyl-1,2,3,4,4a,5-hexahydropyrazino[1,2-a][1,4]benzodiazepin-6(7H)-yl)propan-1-one] |  |  | 81
28 | O=C(c1ccncc1)N1Cc2ccccc2N2CCN(Cc3ccccc3)CC2C1 (centres unmarked) [Example 107, (3-benzyl-1,2,3,4,4a,5-hexahydropyrazino[1,2-a][1,4]benzodiazepin-6(7H)-yl)(pyridin-4-yl)methanone] | 5.66 | 192 | 
29 | CCCC(=O)N1Cc2ccccc2N2CCN(Cc3ccccc3)CC2C1 (centres unmarked) [Example 108, 1-(3-benzyl-1,2,3,4,4a,5-hexahydropyrazino[1,2-a][1,4]benzodiazepin-6(7H)-yl)butan-1-one] | 3.12 | 162 | 
30 | O=C(C1CCOC1)N1Cc2ccccc2N2CCN(Cc3ccccc3)CC2C1 (centres unmarked) [Example 109, (3-benzyl-1,2,3,4,4a,5-hexahydropyrazino[1,2-a][1,4]benzodiazepin-6(7H)-yl)(tetrahydrofuran-3-yl)methanone] |  |  | 65
31 | O=C(c1cccnc1)N1Cc2ccccc2N2CCN(Cc3ccccc3)CC2C1 (centres unmarked) [Example 110, (3-benzyl-1,2,3,4,4a,5-hexahydropyrazino[1,2-a][1,4]benzodiazepin-6(7H)-yl)(pyridin-3-yl)methanone] |  |  | 97
32 | O=C(CCN1CCCCC1)N1Cc2ccccc2N2CCN(Cc3ccccc3)CC2C1 (centres unmarked) [Example 111, 1-(3-benzyl-1,2,3,4,4a,5-hexahydropyrazino[1,2-a][1,4]benzodiazepin-6(7H)-yl)-3-(piperidin-1-yl)propan-1-one] |  |  | 162
33 | O=C(C1CC1)N1Cc2ccccc2N2CCN(Cc3ccccc3)CC2C1 (centres unmarked) [Example 112, (3-benzyl-1,2,3,4,4a,5-hexahydropyrazino[1,2-a][1,4]benzodiazepin-6(7H)-yl)(cyclopropyl)methanone] | 4.67 | 139 | 
34 | CCOCC(=O)N1Cc2ccccc2N2CCN(Cc3ccccc3)CC2C1 (centres unmarked) [Example 113, 1-(3-benzyl-1,2,3,4,4a,5-hexahydropyrazino[1,2-a][1,4]benzodiazepin-6(7H)-yl)-2-ethoxyethanone] |  |  | 51

Source: patent publication US9133206B2, “Benzodiazepine and pyridodiazepine derivatives” (AbbVie Inc., priority 2010, dated 2015)
